What was measured:
HDHD1 = HDHD1 (Homo sapiens, UniProt Q08623); experiment: in vitro competition assay, dephosphorylation; assay type: biochemical; conditions: competition with UMP
PhoA = PhoA (Escherichia coli, UniProt P00634); experiment: HPLC, dephosphorylation in cascade; assay type: biochemical; conditions: 50 mM Tris-HCl pH 8.0, 1 mM MgCl2, 30 °C
CodA = molecular target: T1, CodA (Escherichia coli, UniProt P25524); experiment: HPLC, deamination in cascade; assay type: biochemical; conditions: 50 mM Tris-HCl pH 8.0, 1 mM MgCl2, 30 °C
T1 sequence (P25524 2-427): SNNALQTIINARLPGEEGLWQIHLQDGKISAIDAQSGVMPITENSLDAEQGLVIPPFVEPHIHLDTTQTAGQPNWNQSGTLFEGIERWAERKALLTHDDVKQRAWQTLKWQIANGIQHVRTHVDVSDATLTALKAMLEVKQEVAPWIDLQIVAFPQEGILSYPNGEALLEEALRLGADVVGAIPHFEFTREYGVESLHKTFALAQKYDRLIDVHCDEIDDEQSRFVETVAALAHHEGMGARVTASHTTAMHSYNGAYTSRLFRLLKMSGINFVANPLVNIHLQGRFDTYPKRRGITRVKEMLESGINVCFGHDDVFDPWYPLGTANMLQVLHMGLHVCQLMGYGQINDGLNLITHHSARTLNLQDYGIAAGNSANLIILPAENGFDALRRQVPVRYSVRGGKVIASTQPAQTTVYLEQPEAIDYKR

SgGouE [1] = molecular target: T2, SgGouE (Streptomyces graminearus, UniProt K4HPM3); experiment: HPLC turnover assay; assay type: biochemical; conditions: 50 mM Tris-HCl pH 8.0, 1 mM CMP, 1 mM MgCl2, 30 °C (cascade)
T2 sequence (K4HPM3 1-246): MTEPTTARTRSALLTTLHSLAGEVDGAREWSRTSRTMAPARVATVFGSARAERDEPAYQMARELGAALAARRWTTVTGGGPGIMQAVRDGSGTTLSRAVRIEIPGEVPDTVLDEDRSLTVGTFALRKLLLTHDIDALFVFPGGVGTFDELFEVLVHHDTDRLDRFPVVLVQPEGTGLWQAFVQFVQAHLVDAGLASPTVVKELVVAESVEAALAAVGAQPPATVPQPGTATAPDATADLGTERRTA

SgGouE [2] = molecular target: T2, SgGouE; experiment: HPLC turnover assay; assay type: biochemical
[3] = substrate: O=c1ccn([C@@H]2O[C@H](COP(=O)(O)O)[C@@H](O)[C@H]2O)c(=O)[nH]1; experiment: kinetic analysis of UMP hydrolysis; assay type: biochemical, Neisseria meningitidis

Chain of PhoA (P00634 22-471): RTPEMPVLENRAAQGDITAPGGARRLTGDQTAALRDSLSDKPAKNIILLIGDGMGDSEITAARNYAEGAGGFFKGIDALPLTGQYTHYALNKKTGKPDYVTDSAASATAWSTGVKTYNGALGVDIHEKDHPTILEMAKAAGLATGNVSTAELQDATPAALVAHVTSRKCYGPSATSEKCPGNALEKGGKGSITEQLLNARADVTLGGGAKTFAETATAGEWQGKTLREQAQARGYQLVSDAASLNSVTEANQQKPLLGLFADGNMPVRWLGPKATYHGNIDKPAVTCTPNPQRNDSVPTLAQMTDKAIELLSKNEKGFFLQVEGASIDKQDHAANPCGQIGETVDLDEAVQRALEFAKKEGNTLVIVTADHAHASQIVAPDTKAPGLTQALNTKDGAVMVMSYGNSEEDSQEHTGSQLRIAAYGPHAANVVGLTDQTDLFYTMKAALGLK
Chain of HDHD1 (Q08623 whole entry): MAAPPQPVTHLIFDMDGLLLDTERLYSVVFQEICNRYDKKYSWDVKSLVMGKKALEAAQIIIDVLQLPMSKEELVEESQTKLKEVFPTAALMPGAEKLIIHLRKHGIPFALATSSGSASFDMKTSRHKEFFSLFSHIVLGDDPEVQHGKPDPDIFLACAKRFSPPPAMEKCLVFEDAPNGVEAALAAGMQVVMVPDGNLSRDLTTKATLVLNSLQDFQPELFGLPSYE

Molecule: O=c1[nH]cc([C@@H]2O[C@H](COP(=O)(O)O)[C@@H](O)[C@H]2O)c(=O)[nH]1 [ΨMP]
- in vitro competition assay, dephosphorylation (HDHD1): HDHD1 has prominent specificity and activity against the latter substrate
- HPLC, dephosphorylation in cascade (PhoA): the phosphatase PhoA was utilized for the dephosphorylation of ΨMP for related assays

Molecule: Nc1cc[nH]c(=O)n1 [cytosine]
- HPLC, deamination in cascade (CodA): cytosine can be easily deaminated by CodA (deaminase)

Molecule: Nc1ccn([C@@H]2O[C@H](COP(=O)(O)O)[C@@H](O)[C@H]2O)c(=O)n1 [CMP]
- HPLC turnover assay (SgGouE [1]): we found that SgGouE indicates the most superior performance

Molecule: O=c1ccn([C@@H]2O[C@H](COP(=O)(O)O)[C@@H](O)[C@H]2O)c(=O)[nH]1 [UMP]
- relative efficiency (SgGouE [2]): 50%

B1: NmYgdH (Neisseria meningitidis MC58) (protein)
chain: MENTNRVPEQARYDAERRQADEALAGVFPAVSIFGSARTPQNHADYAFACRLARRLSDSGIAVISGGGPGIMEAANKGAFAGKSVSVGLNIVLPHEQKPNPYQDIALRFSRFAERKAVFFRYSQAYVVMPGGFGTLDELFEILTLVQTGKVPPRPIVLVGKAFWSGLAEWINAQLLARGLISEGAVSLFAISDDEDEIVAYLSEHGLQTA
- Km [3]: 11.78 ± 0.81 mM
- kcat [3]: 81.90 ± 2.60 s⁻¹
